From US20250137054A1, “COMPOSITION AND METHOD FOR EVALUATING RESPONSIVENESS OF EDARAVONE” (MITSUBISHI TANABE PHARMA CORPORATION, priority 2022, published 2025)

What was measured:
[1] = system: healthy individual-derived neurons (iPS cell-derived motor neurons); assay: Evaluation of cellular damage by live cell imaging, healthy individual-derived neurons; format: cell-based, human; details: edaravone 30 μM, 24 hours
Method: (§1) Human induced pluripotent stem (iPS) cells were induced from cells derived from an ALS patient and cells derived from a healthy individual using a conventional method. The cells derived from the ALS patient were used that are known to have an ALS risk mutation as a heterozygous mutation in the TARDBP gene. Each iPS cell was differentiated into a motor neuron (hereinafter, also simply referred to as a “neuron”) using a conventional method. […]
A treatment was performed in which the culture medium dissolved with a dimethyl sulfoxide (DMSO) solution of the evaluation compound (edaravone) (final concentration: edaravone 30 μM, DMSO 0.03% v/v) was brought into contact with the neurons after 7 days of cultivation, and occurrence of cellular damage was evaluated over time. […]
Evaluation of cellular damage was performed by live cell imaging using IncuCyte S3 (Sartorius) and Cytotox (Sartorius, 4846) according to an attached protocol. The neurite length per unit area (unit: mm/mm^2) and the number of dead cells (unit: count/image) were analyzed over time and used as evaluation indicators. […]

[2] = system: TDP-43 in healthy individual-derived neurons; assay: TDP-43 localization evaluation, healthy individual-derived neurons; format: cell-based, human; details: edaravone treatment, DMSO group = 100 (FIG. 15)
Excerpt: as §1
Intracellular localization of TDP-43 polypeptides was evaluated by immunofluorescence staining of neurons. […] After further nuclear staining, washing with PBS, and imaging under a fluorescence microscope were performed. The captured images were analyzed using Matlab (Mathworks), and fluorescence intensities of TDP-43 in a nuclear region and in a cytoplasmic region were respectively calculated. […]
Regarding the intracellular localization of TDP-43 polypeptides, the nuclear and cytoplasmic TDP-43 fluorescence intensities and the cytoplasmic/nuclear TDP-43 intensity ratios in ALS cells and healthy cells are shown in FIG. 15. […]

CC1=NN(c2ccccc2)C(=O)C1 [edaravone, 5-methyl-2-phenyl-2,4-dihydro-3H-pyrazol-3-one]
neurite length (rate of change, DMSO group = 100) ([1]; vs DMSO-treated group (FIG. 13)): no significant change | number of dead neurons (rate of change, DMSO group = 100) ([1]; vs DMSO-treated group (FIG. 14)): no significant change | effect of decreasing the cytoplasmic/nuclear TDP-43 intensity ratio [2]: not observed
